Test results taken from ChEMBL document CHEMBL5357036, “Latest developments in coumarin-based anticancer agents: mechanism of action and structure-activity relationship studies” (RSC Med Chem, 2024).
Values after ≈ are worked out from the molar mass of the structure shown.

Columns and labels:
[1] = system: HepG2; assay: Cytotoxicity against human HepG2 cells assessed as cell growth inhibition measured after 48 hrs by MTT assay; assay type: functional, cell-based; conditions: HepG2, 48 h
[2] = system: MCF7; assay: Cytotoxicity against human MCF7 cells assessed as cell growth inhibition measured after 48 hrs by MTT assay; assay type: functional, cell-based; conditions: MCF7, 48 h
[3] = system: K562; assay: Cytotoxicity against human K562 cells assessed as reduction in cell growth by MTT assay; assay type: functional, cell-based
[4] = system: A549; assay: Cytotoxicity against human A549 cells assessed as reduction in cell growth incubated for 48 hrs by MTT assay; assay type: functional, cell-based; conditions: A549, 48 h
[5] = system: MCF7; assay: Cytotoxicity against human MCF7 cells assessed as reduction in cell growth incubated for 48 hrs by MTT assay; assay type: functional, cell-based; conditions: MCF7, 48 h
[6] = system: T47D; assay: Anticancer activity against human T47D cells assessed as cell growth inhibition; assay type: functional, cell-based
[7] = system: MCF7; assay: Growth inhibition of human MCF7 cells incubated for 48 hrs by SRB assay; assay type: functional
[8] = Cytotoxicity against green monkey COS-7 cells; assay type: toxicity, cell-based; conditions: green monkey (Chlorocebus aethiops)
[9] = system: HeLa; assay: Anticancer activity against human HeLa cells assessed as cell growth inhibition; assay type: functional
[10] = system: HOS; assay: Cytotoxicity against human HOS cells assessed as reduction in cell growth incubated for 5 days by MTT assay; assay type: functional, cell-based; conditions: 120 h
[11] = system: SW480; assay: Cytotoxicity against human SW480 cells assessed as reduction in cell viability incubated for 48 hrs by MTT; assay type: functional, cell-based; conditions: SW480, 48 h
[12] = system: MCF7; assay: cells; conditions: Homo sapiens, MCF7, 24 h
Description: Cytotoxicity against human MCF7 cells assessed as reduction in cell viability incubated for 24 hrs by MTT assay

[13] = system: MCF7; assay: Cytotoxicity against human MCF7 cells assessed as inhibition of cell growth measured after 24 hrs by MTT assay; assay type: functional, cell-based; conditions: MCF7, 24 h
[14] = system: MCF7; assay: Antiproliferative activity against human MCF7 cells assessed as reduction in cell viability measured after 24 hrs by MTT assay; assay type: functional, cell-based; conditions: MCF7, 24 h
[15] = system: MCF7; assay: Cytotoxicity against human MCF7 cells assessed as cell growth inhibition incubated for 48 hrs by SRB assay; assay type: functional, cell-based; conditions: MCF7, 48 h
[16] = system: MCF7; assay: Cytotoxicity against human MCF7 cells assessed as reduction in cell growth incubated for 5 days by MTT assay; assay type: functional, cell-based; conditions: MCF7, 120 h
[17] = molecular target: ALK tyrosine kinase receptor (Homo sapiens, UniProt Q9UM73, L1196M); assay: Inhibition of ALK L1196M mutant (unknown origin)
Sequence of ALK tyrosine kinase receptor (Q9UM73 19-1620 L1196M limits assumed): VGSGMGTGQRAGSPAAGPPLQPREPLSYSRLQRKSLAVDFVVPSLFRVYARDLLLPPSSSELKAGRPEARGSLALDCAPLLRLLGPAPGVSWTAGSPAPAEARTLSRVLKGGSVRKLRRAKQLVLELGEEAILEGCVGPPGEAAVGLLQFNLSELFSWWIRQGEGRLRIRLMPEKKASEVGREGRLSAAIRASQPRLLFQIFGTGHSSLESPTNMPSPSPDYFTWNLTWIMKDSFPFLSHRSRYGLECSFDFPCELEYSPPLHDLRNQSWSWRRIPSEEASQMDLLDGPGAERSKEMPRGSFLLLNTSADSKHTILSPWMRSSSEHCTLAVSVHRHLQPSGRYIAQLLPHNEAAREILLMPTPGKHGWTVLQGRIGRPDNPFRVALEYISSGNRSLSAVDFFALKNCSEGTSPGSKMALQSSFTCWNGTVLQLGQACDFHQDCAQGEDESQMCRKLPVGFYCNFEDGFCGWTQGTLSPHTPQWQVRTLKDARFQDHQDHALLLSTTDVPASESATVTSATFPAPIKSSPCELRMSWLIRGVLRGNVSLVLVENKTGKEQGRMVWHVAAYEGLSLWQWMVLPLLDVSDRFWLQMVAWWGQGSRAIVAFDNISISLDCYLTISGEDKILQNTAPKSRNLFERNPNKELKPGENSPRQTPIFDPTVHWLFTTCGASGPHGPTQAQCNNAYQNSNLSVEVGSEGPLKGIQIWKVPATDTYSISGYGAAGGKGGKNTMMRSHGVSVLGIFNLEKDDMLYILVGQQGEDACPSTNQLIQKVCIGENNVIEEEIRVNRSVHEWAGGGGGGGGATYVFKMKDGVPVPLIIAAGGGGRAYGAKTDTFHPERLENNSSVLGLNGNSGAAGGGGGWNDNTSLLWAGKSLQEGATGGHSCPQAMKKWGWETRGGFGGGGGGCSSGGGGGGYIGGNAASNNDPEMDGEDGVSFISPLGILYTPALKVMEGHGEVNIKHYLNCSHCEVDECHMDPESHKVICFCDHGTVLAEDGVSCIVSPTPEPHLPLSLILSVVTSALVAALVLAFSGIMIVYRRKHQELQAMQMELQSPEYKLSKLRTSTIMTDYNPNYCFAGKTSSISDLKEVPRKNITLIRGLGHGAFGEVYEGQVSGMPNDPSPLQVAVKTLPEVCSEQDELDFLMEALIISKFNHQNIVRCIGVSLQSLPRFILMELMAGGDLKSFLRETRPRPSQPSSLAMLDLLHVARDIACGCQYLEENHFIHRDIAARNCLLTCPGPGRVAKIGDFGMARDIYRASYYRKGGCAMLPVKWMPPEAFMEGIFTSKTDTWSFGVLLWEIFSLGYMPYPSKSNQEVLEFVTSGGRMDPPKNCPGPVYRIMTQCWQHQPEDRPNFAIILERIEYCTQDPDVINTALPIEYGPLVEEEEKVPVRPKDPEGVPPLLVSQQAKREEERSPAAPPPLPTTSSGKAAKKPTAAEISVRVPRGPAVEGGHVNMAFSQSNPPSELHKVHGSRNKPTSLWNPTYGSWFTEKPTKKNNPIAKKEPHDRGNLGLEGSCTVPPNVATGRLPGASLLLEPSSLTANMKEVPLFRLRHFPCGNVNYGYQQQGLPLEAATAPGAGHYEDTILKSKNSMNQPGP

[18] = system: MDA-MB-231; assay: Antiproliferative activity against human MDA-MB-231 cells assessed as reduction in cell viability measured after 72 hrs under hypoxia condition by MTT assay; assay type: functional, cell-based; conditions: MDA-MB-231, 72 h
[19] = system: MDA-MB-231; assay: Antiproliferative activity against human MDA-MB-231 cells assessed as reduction in cell viability measured after 72 hrs under normoxia condition by MTT assay; conditions: MDA-MB-231, 72 h

Question: For `Cc1cc(-c2cc3cc(Cl)ccc3oc2=O)n(-c2nc(-c3ccc(Cl)cc3)cs2)n1`, which IC50 [1] is on record?
Answer: 3.06 µM

Question: What about the IC50 [2] of the same molecule?
Answer: 4.42 µM

Question: For `COc1ccc(-c2csc(-n3nc(C)cc3-c3cc4cc(Cl)ccc4oc3=O)n2)cc1`, which IC50 [2] is on record?
Answer: 4.03 µM

Question: For `Cc1c(Cc2ccc(NC(=O)Nc3ccc(F)c(F)c3)nc2)c(=O)oc2cc(O)c(C(C)(C)C)cc12`, which IC50 [3] is on record?
Answer: 1.66 µM

Question: What does the source list for `O=C(CNCc1cccnc1)Nc1cc2ccccc2oc1=O`?
Answer: IC50 [4]: 69.1 µM; IC50 [5]: 69.1 µM

Question: For `Cc1cc(-c2cc3ccccc3oc2=O)n(-c2nc(-c3ccc(Cl)cc3)cs2)n1`, which IC50 [1] is on record?
Answer: 3.74 µM

Question: For `O=C(/C=C/c1ccc(OCCN2CCCCC2)cc1)c1cc2ccccc2oc1=O`, which IC50 [6] is on record?
Answer: 2.32 µM

Question: And the GI50 [7]?
Answer: < 10 µg/mL

Question: With `O=c1oc2ccccc2cc1-c1csc(N/N=C/c2cc([N+](=O)[O-])ccc2Cl)n1` as the molecule, how does the IC50 [8] read?
Answer: 1.96 µM

Question: For `Cc1ccc(S(=O)(=O)n2c(-c3cc(=O)oc4ccc(C)cc34)nc3ccccc32)cc1`, which GI50 [9] is on record?
Answer: 36.2 µg/mL (≈ 84.1 µM)

Question: With `COc1ccc2oc(=O)cc(-c3nc4ccccc4n3S(=O)(=O)c3ccc(C)cc3)c2c1` as the molecule, how does the GI50 [9] read?
Answer: 35.3 µg/mL (≈ 79.1 µM)

Question: Which IC50 [10] does the source give for `Cn1cc(C(C)(c2cc3ccccc3oc2=O)c2cn(C)c3ccccc23)c2ccccc21` here?
Answer: 12.2 µM

Question: With `COc1cc(/C=C/c2ccc3ccc(=O)oc3c2)ccc1O` as the molecule, how does the IC50 [11] read?
Answer: 5.33 µM

Question: For `C/C(=N\Nc1nc(C)c(/N=N/c2ccc(C)cc2)s1)c1cc2cc(/N=N/c3ccccc3)ccc2oc1=O`, which IC50 [12] is on record?
Answer: 11.2 µM

Question: Which IC50 [11] does the source give for `CCCCCCCCOc1ccc2c(C)c(/C=C/c3cc(OC)ccc3OC)c(=O)oc2c1` here?
Answer: 6.92 µM

Question: Which IC50 [13] does the source give for `COc1ccc(-c2cc(-c3cc4ccccc4oc3=O)nc3nc(C)[nH]c(=O)c23)cc1` here?
Answer: 1.1 µM

Question: For `Cc1cc(OCc2cn(C3C(=O)N(c4cccc([N+](=O)[O-])c4)C3/C=C\c3ccccc3)nn2)cc2oc(=O)cc(C)c12` (configuration not stated), which IC50 [14] is on record?
Answer: 53.6 µM

Question: With `COc1cc(/C=C2/SC(=O)N(CCCOc3ccc4c(C)cc(=O)oc4c3)C2=O)cc(OC)c1O` as the molecule, how does the IC50 [15] read?
Answer: 12.1 µg/mL (≈ 24.4 µM)

Question: For `COc1cc(/C=C/C(=O)c2cc3ccccc3oc2=O)ccc1OCCN1CCCCC1`, which IC50 [6] is on record?
Answer: 2.32 µM

Question: And the GI50 [7]?
Answer: 32.5 µg/mL (≈ 75 µM)

Question: Which IC50 [13] does the source give for `COc1ccc(-c2cc(-c3cc4ccccc4oc3=O)nc(N)c2C(N)=O)cc1` here?
Answer: 1.1 µM

Question: With `COc1ccc(/C=C2/SC(=O)N(CCCOc3ccc4c(C)cc(=O)oc4c3)C2=O)cc1` as the molecule, how does the IC50 [15] read?
Answer: 15.6 µg/mL (≈ 34.7 µM)

Question: Which IC50 [4] does the source give for `Cc1c(NC(=O)CNCc2cccnc2)c(=O)oc2ccccc12` here?
Answer: 69.1 µM

Question: And the IC50 [5]?
Answer: 69.1 µM

Question: With `COc1ccc(-c2cc(-c3cc4ccccc4oc3=O)nc(NC(C)=O)c2C#N)cc1` as the molecule, how does the IC50 [13] read?
Answer: 1.1 µM

Question: For `COc1cc(/C=C/c2ccc3ccc(=O)oc3c2)cc(OC)c1O`, which IC50 [11] is on record?
Answer: 1.01 µM

Question: With `CC(c1cc2ccccc2oc1=O)(c1c[nH]c2ccc(I)cc12)c1c[nH]c2ccc(I)cc12` as the molecule, how does the IC50 [16] read?
Answer: 28 µM

Question: And the IC50 [10]?
Answer: 8.75 µM

Question: Which IC50 [12] does the source give for `C/C(=N\Nc1nc(C)c(/N=N/c2ccc(Cl)cc2)s1)c1cc2cc(/N=N/c3ccccc3)ccc2oc1=O` here?
Answer: 10.5 µM

Question: Which IC50 [17] does the source give for `COc1ccc2cc(-c3nc4ccc(OC)cc4s3)c(=O)oc2c1` here?
Answer: 0.45 µM

Question: With `Cc1cc(OCc2cn(C3C(=O)N(c4cccc(Cl)c4)C3/C=C\c3ccccc3)nn2)cc2oc(=O)cc(C)c12` (configuration not stated) as the molecule, how does the IC50 [14] read?
Answer: 58.6 µM

Question: With `CC(c1cc2ccccc2oc1=O)(c1c[nH]c2ccccc12)c1c[nH]c2ccccc12` as the molecule, how does the IC50 [16] read?
Answer: 19.8 µM

Question: What about the IC50 [10] of the same molecule?
Answer: 20.8 µM

Question: With `O=C(/C=C/c1ccccc1OCCN1CCCCC1)c1cc2ccccc2oc1=O` as the molecule, how does the IC50 [6] read?
Answer: 2.32 µM

Question: What about the GI50 [7] of the same molecule?
Answer: 18.9 µg/mL (≈ 46.8 µM)

Question: With `Cc1c(Cc2ccc(NC(=O)Nc3ccc(Cl)c(F)c3)nc2)c(=O)oc2cc(O)c(C(C)(C)C)cc12` as the molecule, how does the IC50 [3] read?
Answer: 1.66 µM

Question: With `O=c1cc(O)c2ccccc2o1` [4-HYDROXYCOUMARINS] as the molecule, how does the IC50 [18] read?
Answer: ≥ 100 µM

Question: And the IC50 [19]?
Answer: ≥ 100 µM

Question: With `COc1cccc2c1C(=O)c1c(O)c3c(c(O)c1C2=O)C[C@@](O)(C(=O)CO)C[C@@H]3O[C@H]1C[C@H](N)[C@H](O)[C@H](C)O1` [DOXORUBICIN] as the molecule, how does the IC50 [18] read?
Answer: 0.6 µM

Question: And the IC50 [19]?
Answer: 1.07 µM

Question: For `CNC(=O)c1cc(Oc2ccc(NC(=O)Nc3ccc(Cl)c(C(F)(F)F)c3)cc2)ccn1` [SORAFENIB], which IC50 [12] is on record?
Answer: 5.1 µM
